The nature of series [1]: Pharmacokinetics of WN-compounds in mice (brain and serum concentration, HPLC). It is filed as in vivo, mouse (C57BL/6N). To be noted: for Cmax: C57BL/6N mouse, oral 50 mg/kg body weight. Here is the method: Wild type mice at 8 weeks (male, C57BL/6N) were used for the analysis of CPN-9, WN1303R, WN1312, WN1315 and WN1316 pharmacokinetics. CPN-9 was suspended in 0.5% carboxymethyl cellulose (CMC)-Na (carmellose sodium, Maruishi Pharmaceutical Co., Ltd.), while WN1303R, WN1312 and WN1316 were dissolved in Milli-Q purified water (MQ water) and WN1315 was dissolved in 0.25 N HCl. CPN-9 (100 mg/kg body weight) and the four WN-compounds (50 mg/kg body weight) were injected intragastrically (i.g.). After 15 min, 30 min, 1 h, 2 h, 4 h, 6 h, and 8 h, blood was collected from heart of each mouse anesthetized with 2% isoflurane by inhalation or 4% halothane in a mixture of N2O/O2 (70∶30). Mice were thereafter perfused transcardially with physiological saline containing 10% heparin under anesthesia, and the whole brain was removed. Each blood sample was centrifuged at 1,000×g for 10 min at 4°C, and the serum fraction was collected. The brain was frozen in liquid nitrogen, and was cryopreserved until use.
We mixed serum with deproteinization buffer (0.05 M H2SO4, 2.5 M K2CO3, and […]), and collected the organic layer after centrifugation at 1,500×g for 10 min. The organic layer was mixed with 0.05 M H2SO4, and then, after centrifugation at 1,500×g for 10 min, the water layer was collected. After the addition of methanol, each serum derived sample was subjected to HPLC.
Mouse whole brain was homogenized with acetonitrile and left at −80°C for 10 min. The supernatant was collected after centrifugation at 10,000×g for 10 min at 4°C and was dried under vacuum. The dried sample was re-dissolved in methanol and mixed with two volumes of 10 mM phosphate buffer (pH7.0), after which the supernatant was collected by centrifugation at 10,000×g for 10 min at 4°C and then left at −80°C for 10 min. To further remove debris, the supernatant was filtered (0.45 µm filter), centrifuged (at 10,000×g for 10 min at 4°C), filtered (0.22 µm filter) and finally centrifuged again. Each sample solution from brain was subjected to HPLC.
The concentrations of CPN-9 and WN1316 in the serum and brain samples were determined by HPLC on a CAPCELL PAK C18 column (SHISEIDO) with 50% acetonitrile (CPN-9), 40% acetonitrile (WN1316) or 45% acetonitrile (WN1303R, WN1312, and WN1315) in 10 mM phosphate buffer (pH 7.0).

Series [2] has as its system ALS(SOD1^H46R) mice. As to the kind of experiment: Post-onset oral administration in ALS(SOD1^H46R) mice: motor function, body weight, survival. It is filed as in vivo. To be noted: for balance beam test: duration from onset to the day the mouse was unable to stay on the bar: n = 26, mean ± SEM (vehicle 20.7±0.7); for survival interval after onset: n = 26, mean ± SD (vehicle 36.6±6.2). An excerpt:
Transgenic mice carrying the H46R mutation in the human SOD1 gene; SOD1^H46R were used as a familial ALS mouse model. […] Since the genetic background is one of the important factors modulating disease phenotypes in mutant SOD1 transgenic mice, we first generated a congenic line of ALS(SOD1^H46R) transgenic mice by backcrossing more than 15 generations to B6 mice.
The lines were maintained as hemizygotes by mating ALS(SOD1^H46R) and ALS(SOD1^G93A) males with B6 females. Offspring were genotyped by PCR using genomic DNA from tail tissue. Mice were housed at 23°C with a 12 h light/dark cycle, in which water and food was available ad libitum. The condition of each animal was monitored weekly initially and then daily after disease onset. The lifespan was determined by the days from disease onset to the endpoint, in which mouse lost active and/or spontaneous movement. All animal experimental procedures were approved by the Institutional Animal Care and Use Committee at Tokai University.
WN1316 was dissolved in MQ water, and diluted with physiological saline. ALS(SOD1^H46R) transgenic mice were given WN1316 via gastric tube (CAT.No.4202, Fuchigami) at a dose of either 1 µg, 10 µg or 100 µg/5 ml/kg body weight. ALS(SOD1^G93A) transgenic mice were given 10 µg/kg WN1316. Animals simultaneously treated with physiological saline (vehicle group, 5 ml/kg) were used as controls.
To determine the onset of motor dysfunction in ALS(SOD1^H46R) transgenic mice, we adopted a balance beam test as previously described in detail. To determine the onset of motor dysfunction in ALS(SOD1^G93A) transgenic mice, we adopted both balance beam and grip strength tests. Grip strength test was assessed using a traction meter (BrainScience Idea Co., Ltd.). Each mouse was given three trials, and the highest limb strength score was recorded. For ALS(SOD1^G93A) transgenic mice, grip strength tests were started at 11 weeks of age and performed twice a week until an over 20% reduction compared with the initial limb strength score at 11 weeks of age was observed. Finally, a grade 3 in the balance beam test and over 20% reduction of limb strength score were defined as the sign of the disease onset in ALS(SOD1^G93A) transgenic mice.
The gross phenotypes were measured blindly. The body weight of each mouse was measured weekly initially and then daily after disease onset. Mice were assessed for gross behavior every week from 12 weeks of age in ALS(SOD1^H46R) mice and from 11 weeks of age in ALS(SOD1^G93A) mice until the endpoint. In particular, hind limb movement and rearing behavior of each animal were monitored weekly from 12 weeks of age until the end stage. The days from the disease onset to the endpoint were counted individually as the survival interval.
We assessed motor performance and coordination, and balance in the mice by the balance-beam test, vertical pole test, and footprint analysis as previously described in detail and grip strength test as described above. In brief, the balance-beam test was performed every day after the onset until mice were unable to stay on the bar. Each mouse was given a maximum of five vertical pole trials using the following two criteria; 1) a cutoff of 45cm and 2) the task was terminated when mouse reached the vertical ascending distance of 45 cm. The highest vertical ascending distance was scored. The footprint trial was conducted at 18 and 21 weeks of age in ALS(SOD1^H46R) mice and at 12, 16, and 20 weeks of age in ALS(SOD1^G93A) mice. Grip strength test of ALS(SOD1^H46R) mice was started at 17 weeks of age and performed once a week.
To evaluate the spontaneous motor activities in mice, we conducted cage activity and rearing performance tests by using SUPERMEX with infrared ray sensor monitor (Muromachi Kikai). […]

Usually Cmax stands for the maximum level reached in the sampled fluid or tissue.

Where a name gives a salt, the structure may show the parent alone. Read-outs that look alike come from different tables or passages of the source.

`Cc1cc(C)c(N(C)CC(=O)Nc2nc(-c3ccccn3)c[nH]2)c(C)c1` [WN1316, 2-[mesityl(methyl)amino]-N-[4-(pyridin-2-yl)-1H-imidazol-2-yl] acetamide trihydrochloride]: the “AUC0–8: Brain” value in series [1] (C57BL/6N mice, intragastric, 50 mg/kg, n = 4, mean ± SD) amounted to 38.9±5.7 µg⋅h/g. In series [1] (WN1316 50 mg/kg vs CPN-9 100 mg/kg), the “brain AUC0–8 relative to the level observed with CPN-9” value is “about 39 fold”. Further, the Cmax in series [1] (male, brain, read-out: Cmax in brain) was found to be 42.1 µM; in series [1] (male, serum, read-out: Cmax in blood) it was 9.78 µM. In addition, in series [1] (male, mouse, brain / serum, oral 50 mg/kg, C57BL/6N, read-out: brain AUC0–8 relative to serum levels), the Kp is about 4. Further, the AUC(0-t) in series [1] (male, mouse, serum, po, C57BL/6N mice, intragastric, 50 mg/kg, n = 4, mean ± SD, read-out: AUC0–8: Serum) amounted to 13600 ± 700 ng·h/mL. The “BBB permeability (in words)” value in series [1] (mouse, in vivo) is “prominent BBB permeability”. Besides, the “clearance in both brain and serum” value in series [1] (oral 50 mg/kg, C57BL/6N) worked out at 8 h. Also, the “balance beam test: duration from onset to the day the mouse was unable to stay on the bar” value in series [2] (1 µg/kg/day p.o. post-onset) was 25.6 ± 0.9 days; in series [2] (10 µg/kg/day p.o. post-onset), 26.3 ± 0.6 days; in series [2] (100 µg/kg/day p.o. post-onset) it was 28.4 ± 0.8 days. Also, the “survival interval after onset” value in series [2] (1 µg/kg/day p.o.) came to 43.8 ± 5.5 days; in series [2] (10 µg/kg/day p.o.), 43.9 ± 4.4 days; in series [2] (100 µg/kg/day p.o.), 45.9 ± 6.0 days. In series [2] (1, 10, 100 µg/kg/day, 12–24 weeks of age), the “effect on mouse weight” value is recorded as “did not affect mouse weight”. The “prolongation of post-onset survival” value in series [2] (1–100 µg/kg/day p.o., vs vehicle) is reported as 20–25%. In addition, in series [2] (1–100 µg/kg/day, 21–22 weeks of age (late symptomatic stage), vs vehicle), the “vertical pole climbing and grip strength” value is on record as “significant preservation of motor performance”. Further, the “gait on footprint analysis” value in series [2] (21 weeks of age (late symptomatic stage)) is listed as “short but still steady gait”. Also, the “autopsy findings of organs such as heart and kidney” value in series [2] (WN1316-treated mice, data not shown) is on record as “no pathological abnormalities”.

For the origin of these results see paper PMC3909264, “A Novel Acylaminoimidazole Derivative, WN1316, Alleviates Disease Progression via Suppression of Glial Inflammation in ALS Mouse Model” (PLoS ONE, 2014).
